Patent publication US20240216354A1, “IMMUNOMODULATORY IMIDE DRUGS AS ZETA-CHAIN-ASSOCIATED PROTEIN KINASE 70 (ZAP70) AGONISTS AND USES THEREOF” (Dana-Farber Cancer Institute, Inc., priority 2019, published 2024)

What was measured:
[1] = tested on: NK-92 cells; test: NK-92 cell growth by MTT assay; type: cell-based; conditions: Pom 0.03-3 μM, 72 h
Description: (A) NK-92 cells were cultured with Pom (0.5 and 1 μM) for 24 h. Whole cell lysates were subjected to immunoblotting using indicated Abs. (B) NK-92 cells were cultured with Pom (0.5 and 1 μM) for 48 h. The cells were subsequently incubated with calcein-AM-stained U266 cells for 4 h at the indicated effector/target (E/T) ratios. Percent specific lysis was calculated as described previously. (C) NK-92 cells were cultured with Pom (0.03-3 μM) for 72 h. Cell growth was assessed by MTT assay. (D) NK-92 cells were transfected with scrambled (Sc) or Zap-70 siRNA (Zap70si). After 72 h incubation, cell viability was measured by trypan-blue dye exclusion. For B, C, and D, data are representative of at least two independent experiments, and values are expressed in mean±SD.

[2] = target: T1, Zap-70 (Homo sapiens, UniProt P43403); test: Immunoblotting of p-Zap-70 and p-LAT in primary T-cells from healthy volunteer; type: cell-based; parameters: endogenous in cells; host or cells: primary PBMCs, primary T cells and primary NK cells from healthy volunteers; conditions: pomalidomide 0.25-1 μM, 16 h
T1 sequence (P43403 1-619): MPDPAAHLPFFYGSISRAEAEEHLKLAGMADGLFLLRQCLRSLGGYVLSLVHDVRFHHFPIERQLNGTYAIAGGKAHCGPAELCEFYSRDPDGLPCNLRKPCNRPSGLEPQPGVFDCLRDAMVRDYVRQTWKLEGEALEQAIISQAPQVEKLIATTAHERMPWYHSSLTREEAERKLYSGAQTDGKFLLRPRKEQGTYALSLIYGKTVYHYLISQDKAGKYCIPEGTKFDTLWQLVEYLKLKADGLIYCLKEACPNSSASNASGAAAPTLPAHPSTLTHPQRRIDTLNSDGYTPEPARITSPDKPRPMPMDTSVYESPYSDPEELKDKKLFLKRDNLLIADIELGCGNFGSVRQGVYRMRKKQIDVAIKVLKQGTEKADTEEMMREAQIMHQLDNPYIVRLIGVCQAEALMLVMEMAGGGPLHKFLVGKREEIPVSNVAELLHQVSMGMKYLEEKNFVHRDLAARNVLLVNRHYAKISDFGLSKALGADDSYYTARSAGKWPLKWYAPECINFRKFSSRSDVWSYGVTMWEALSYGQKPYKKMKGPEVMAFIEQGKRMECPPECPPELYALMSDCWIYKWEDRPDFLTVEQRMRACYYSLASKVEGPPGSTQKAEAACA
Description: (A) PBMCs were cultured with pomalidomide (“Pom”) (0.01-1 μM) for 16 h. […] (B) PBMCs were cultured with pomalidomide (0.1 and 1 μM) for the indicated time periods. (C) PBMCs were cultured with lenalidomide (“Len”) (1 μM) for 16 h. (D) Primary T-cells from healthy volunteer were cultured with pomalidomide (0.25-1 μM) for 16 h. (E) Jurkat cells were cultured with pomalidomide (0.5 and 1 μM) for 16 h. Whole cell lysates were subjected to immunoblotting (A-E) using indicated Abs. (F) Jurkat cells were cultured with pomalidomide (0.01-1 μM) or lenalidomide (0.01-1 μM) for 72 h. Cell growth was assessed by MTT assay.

## Nc1cccc2c1C(=O)N(C1CCC(=O)NC1=O)C2=O (stereo not drawn) [pomalidomide]
[1]
  cell growth (MTT): neither Pom nor Zap-70 KD altered growth in NK-92 cells
[2]
  p-LAT (immunoblotting): induced p-Zap-70 and p-LAT in primary T cells
  p-Zap-70 (immunoblotting): induced p-Zap-70 and p-LAT in primary T cells
